According to US20250296922A1, “POLYSUBSTITUTED PYRROLIDINE DERIVATIVE, PREPARATION METHOD THEREFOR AND USE THEREOF” (SHANGHAI WENNAI THERAPEUTICS CO LTD, priority 2023, published 2025):

Tests used:
[1] = Proportion of free drug in human plasma, equilibrium dialysis; assay type: in vitro ADME; conditions: 2 μM compound, dialysis 4 h, 37° C.
Method: On the day of the experiment, human plasma samples (purchased from Biomex) were thawed under running tap water and centrifuged at 3220 g for 5 min to remove blood clots. The pH of the resulting plasma was measured and adjusted to pH 7.4+0.1 by using 1% phosphoric acid or 1 N sodium hydroxide as required.
Pretreating the dialysis membranes according to the manufacturer's instructions: The dialysis membrane strips were soaked in ultrapure water at room temperature for approximately 1 hour. Afterwards, each membrane strip containing 2 layers of membrane was separated and soaked in ethanol: water (20:80 v: v) for approximately 20 minutes, then it was ready for use or stored at 2-8° C. (stored for up to 1 month). The membranes were rinsed and soaked in ultrapure water for 20 min before experiments.
A 10 mM DMSO solution of test compound or control warfarin was taken and diluted to 400 μM with DMSO, then 3 μl was taken and added to 597 μl of blank plasma matrix solution to obtain 2 μM of compound solution respectively. 50 μl of test compound solution or control solution was transferred to a sample collection plate with 3 replicate wells per sample. […]
Unbonded %, bonded % and recovered % were calculated using the following formulae. […]

[2] = Stability of the compound in liver microsomes (rat); assay type: in vitro ADME, SD rat; conditions: 1 μM compound, 0.5 mg protein/mL
Method: 2.1.1. working solution: 5 μL of test or control compound stock solution (10 mM DMSO solution) was diluted with 495 μL of acetonitrile (ACN) to obtain an intermediate stock solution (100 μM, 99% ACN).
2.2.2 Preparation procedure: An appropriate amount of NADPH powder was weighed and diluted with 10 mM MgCl2 buffer (working solution concentration: 10 mM; final reaction system concentration: 1 mM).
2.3.2 Preparation procedure: The appropriate concentration of liver microsomal working solution was prepared in 100 mM potassium phosphate buffer;
Acetonitrile (ACN) solution at 4° C. containing 200 ng/mL of Tolbutamide and 200 ng/ml of labetalol as internal standards 2.5. Operation steps:
2.5.2. Diluting liver microsomes with 100 mM potassium phosphate buffer to a concentration of 0.56 mg/mL.
2.5.3. Transferring 445 μL of liver microsomal working solution (0.56 mg/mL) to pre-heated incubation plates T60 and NCF60, and then pre-heating the incubation plates T60 and NCF60 for 10 minutes at 37° C. with shaking. Transferring 54 μL of liver microsomes to each well of the blank plate, adding 6 μL of NAPDH coenzyme solution to the blank plate, and finally transferring 180 μL of termination solution to the blank plate.
2.5.4 Adding 5 μL of compound working solution (100 μM) to the incubation plates T60 and NCF60 containing liver microsomes and mixing three times.
2.5.5. Adding 50 μL of buffer to the NCF60 plate and mixing three times, starting the timer and incubating at 37° C. for 60 min with the plate shaking.
2.5.6. Adding 180 μL of quenching solution and 6 μL of NAPDH coenzyme working solution sequentially to quenching plate TO, making sure that the plate was cold to prevent volatilization of the incubation solution.
2.5.7. For plate T60, mixing well three times and immediately transferring 54 μL of mixing solution (0-min time point) to quenching plate TO, then adding 44 μL of NAPDH coenzyme working solution to incubation plate T60. Starting the timer:
2.5.8. At the 5, 15, 30, 45 and 60 minute time points, adding 180 μL of quenching solution to the quenching plate and transferring 60 μL of reaction solution from the T60 plate to the quenching plate at each time point.
2.5.9. For NCF60 plates, mixing well and transferring 60 μL of reaction solution from the NCF60 incubating solution to a quenching plate containing 180 μL of quenching solution at 60th minute.
2.5.10. All plates were mixed on a shaker for 10 min and then centrifuged at 4000 rpm at 4° C. for 20 min.
2.5.11. Transferring 80 μL of supernatant to 240 μL of HPLC water and mixing on a
2.6.1. Calculating t1/2 and Clint (mic) values based on first-order elimination kinetics: […]

| Compound | free drug proportion of in human plasma [1] [%] | half-life at 1 μM ([2]; Sprague-Dawley, rat, liver microsomes, 37° C., read-out: Rat liver microsomes T½) [min] | Rat liver microsomes Residual (T = 60 min) ([2]; T = 60 min) [%] |
| --- | --- | --- | --- |
| 4-((2R,3S,4S,5R)-3-(3,4-difluoro-2-(methoxy-d3)phenyl)-4,5-dimethyl-5-(trifluoromethyl) pyrrolidine-2-carboxamido)pyridinamide [Compound 11] | 1.6 | – | – |
| COc1c([C@H]2[C@H](C(=O)Nc3ccnc(C(N)=O)c3)O[C@@](C)(C(F)(F)F)[C@H]2C)ccc(F)c1F [VX-548, reference compound] | 1.0 | 16.7 | 8.5 |
